Earlier results, collected in PMC12304352, “Optimization of a GMP-compliant automated one-pot synthesis of Al[^18F]F-NOTA-Ubiquicidin29 − 41 for bacterial infection imaging by PET/CT” (EJNMMI Radiopharmacy and Chemistry, 2025).

System: methicillin-resistant S. aureus (MRSA)
Details: injected intravenously, ref Brouwer et al. [2006]
Source text: Ubiquicidin (UBI), a cationic antimicrobial peptide fragment, has emerged as a promising agent for infection imaging due to its selective binding to anionic bacterial membranes (Ferro-Flores et al. [2016]). […] Another UBI-derived peptide (UBI29 − 41) radiolabeled with technetium-99m, was used as a probe for real-time, whole- ...

Substance: UBI31 − 38: synthetic ubiquicidin derivative composed of only eight amino acids (KVDENGKI; Small ribosomal subunit protein eS31; UniProt P62979 107-114, looked up, fragment)
- Efficacy against MRSA in a mouse infection model: somewhat reduced activity
